In brackets after ≈: the same amount, converted by molar mass. One block for each compound: values may come before it.
Experiments:
[1] = Intrinsic aqueous solubility of compound at pH 7.4 by LC-MS based shake-flask method; format: physicochemical; conditions: read-out: Intrinsic_solubility
MDA-MB-436 = assay: Antiproliferative activity against human MDA-MB-436 cells assessed as reduction in cell viability incubated for 72 hrs by MTT assay; format: functional, cell-based; conditions: MDA-MB-436, 72 h
[2] = molecular target: T1, Glutaminase kidney isoform, mitochondrial (Homo sapiens) (UniProt O94925)
T1 sequence (whole entry): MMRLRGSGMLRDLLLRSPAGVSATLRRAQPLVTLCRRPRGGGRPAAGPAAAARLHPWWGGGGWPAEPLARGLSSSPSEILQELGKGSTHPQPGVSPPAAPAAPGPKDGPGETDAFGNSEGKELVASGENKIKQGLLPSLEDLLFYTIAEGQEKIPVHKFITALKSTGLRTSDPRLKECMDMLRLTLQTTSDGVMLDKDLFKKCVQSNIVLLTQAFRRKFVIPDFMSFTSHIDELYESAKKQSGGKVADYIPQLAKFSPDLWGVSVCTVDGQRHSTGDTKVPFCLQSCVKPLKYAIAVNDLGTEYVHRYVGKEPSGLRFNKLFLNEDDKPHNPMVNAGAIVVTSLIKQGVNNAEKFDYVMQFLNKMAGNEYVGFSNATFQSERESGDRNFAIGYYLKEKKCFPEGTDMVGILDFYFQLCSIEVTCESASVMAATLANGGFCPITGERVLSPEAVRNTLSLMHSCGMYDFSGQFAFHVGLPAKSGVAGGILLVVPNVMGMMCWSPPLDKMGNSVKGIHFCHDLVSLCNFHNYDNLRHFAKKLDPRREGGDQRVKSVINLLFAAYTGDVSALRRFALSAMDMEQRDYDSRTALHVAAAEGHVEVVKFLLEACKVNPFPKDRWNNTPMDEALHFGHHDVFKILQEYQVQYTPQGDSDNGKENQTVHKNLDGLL
Description: Binding affinity to human GLS1 expressed in Escherichia coli strain BL21 (DE3) assessed as change in melting temperature by SYPRO orange dye based protein thermal shift assay

[3] = molecular target: T2, Glutaminase kidney isoform, mitochondrial (Homo sapiens, UniProt O94925); assay: Inhibition of recombinant human GLS1 expressed in Escherichia coli strain BL21 (DE3) preincubated for 10 mins before glutamine addition and measured after 60 mins by bovine liver glutamate dehydrogenase based coupled enzyme assay
T2 sequence (O94925 whole entry): T1 sequence (whole entry)

HCT-116 [4] = assay: Antiproliferative activity against human HCT116 cells assessed as reduction in cell viability incubated for 72 hrs by MTT assay; format: functional, cell-based; conditions: HCT-116, 72 h
[5] = Distribution coefficient, logD of the compound at pH 7.4 by LC-MS based shake-flask method; format: physicochemical; conditions: octanol/water
HCT-116 [6] = assay: Inhibition of colony formation in human HCT-116 cells incubated for 14 days by crystal violet staining based assay; format: functional, cell-based; conditions: dose 0.1-2 µM, time 14.0 day
[7] = Apparent volume of distribution in Sprague-Dawley rat at 5 mg/kg, iv measured upto 72 hrs by LC-MS/MS analysis; format: ADME, organism-based; conditions: in vivo, read-out: Vz
[8] = Clearance in Sprague-Dawley rat at 5 mg/kg, iv measured upto 72 hrs by LC-MS/MS analysis; format: ADME, organism-based; conditions: in vivo, 5 mg/kg, 72 h
[9] = AUC(0 to infinity) in Sprague-Dawley rat at 200 mg/kg, po measured upto 72 hrs by LC-MS/MS analysis; format: ADME, organism-based; parameters: route oral, dose 200 mg/kg, time <=72; conditions: Sprague-Dawley, in vivo
[10] = AUC(0 to infinity) in Sprague-Dawley rat at 5 mg/kg, iv measured upto 72 hrs by LC-MS/MS analysis; format: ADME, organism-based; parameters: route intravenous, dose 5 mg/kg, time <=72; conditions: in vivo, 72 h
[11] = Cmax in Sprague-Dawley rat at 200 mg/kg, po measured upto 72 hrs by LC-MS/MS analysis; format: ADME, organism-based; parameters: route oral, dose 200 mg/kg, time <=72; conditions: in vivo
[12] = Cmax in BALB/c nude mouse plasma xenografted with human HCT-116 cells at 200 mg/kg, po administered twice daily for 28 days; format: ADME, organism-based; parameters: route oral, time 28 day, dose 200 mg/kg
[13] = Toxicity in BALB/c nude mouse xenografted with human HCT-116 cells assessed as tolerability at 200 mg/kg, po administered twice daily measured after 28 days; format: organism-based; conditions: in vivo, 672 h, time 28 day
[14] = Half life in Sprague-Dawley rat at 5 mg/kg, iv measured upto 72 hrs by LC-MS/MS analysis; format: ADME, organism-based; conditions: in vivo
[15] = Half life in Sprague-Dawley rat at 200 mg/kg, po measured upto 72 hrs by LC-MS/MS analysis; format: ADME, organism-based; conditions: in vivo
[16] = Clearance in Sprague-Dawley rat at 200 mg/kg, po measured upto 72 hrs by LC-MS/MS analysis; format: ADME, organism-based; conditions: Sprague-Dawley, in vivo
[17] = Apparent volume of distribution in Sprague-Dawley rat at 200 mg/kg, po measured upto 72 hrs by LC-MS/MS analysis; format: ADME, organism-based; conditions: in vivo
[18] = fCmax in BALB/c nude mouse plasma xenografted with human HCT-116 cells at 200 mg/kg, po administered twice daily for 28 days; format: ADME, organism-based; conditions: in vivo, 672 h, time 28 day
[19] = AUC(0 to t) in Sprague-Dawley rat at 200 mg/kg, po measured upto 72 hrs by LC-MS/MS analysis; format: ADME, organism-based; parameters: route oral, dose 200 mg/kg, time <=72; conditions: in vivo
[20] = Free plasma protein in mouse; format: ADME, cell-free
[21] = Metabolic stability in mouse liver microsomes assessed as clearance at 10 uM preincubated for 5 mins followed by NADPH addition by LC-MS/MS analysis; format: ADME, Microsome; conditions: read-out: CLH
[22] = AUC(0 to t) in Sprague-Dawley rat at 5 mg/kg, iv measured upto 72 hrs by LC-MS/MS analysis; format: ADME, organism-based; parameters: route intravenous, dose 5 mg/kg, time <=72; conditions: in vivo
[23] = Metabolic stability in human liver microsomes assessed as clearance at 10 uM preincubated for 5 mins followed by NADPH addition by LC-MS/MS analysis; format: ADME, Microsome; conditions: read-out: CLH
[24] = Toxicity in BALB/c nude mouse xenografted with human HCT-116 cells assessed as body weight loss at 200 mg/kg, po administered twice daily for 28 days and measured every 3 days; format: organism-based; conditions: in vivo, 672 h, time 28 day
[25] = Metabolic stability in human liver microsomes assessed as half life at 10 uM preincubated for 5 mins followed by NADPH addition by LC-MS/MS analysis; format: ADME, Microsome
[26] = Oral bioavailability in Sprague-Dawley rat at 200 mg/kg measured upto 72 hrs by LC-MS/MS analysis; format: ADME, organism-based; conditions: in vivo
HCT-116 [27] = assay: Antitumor activity against human HCT-116 cells xenografted in BALB/c nude mouse assessed as tumor growth inhibition at 200 mg/kg, po administered twice daily measured after 28 days; format: functional; conditions: time 28 day
[28] = Metabolic stability in human plasma assessed as compound remaining after 2 hrs by LC-MS/MS analysis; format: ADME, cell-free; conditions: read-out: Stability
[29] = Metabolic stability in mouse plasma assessed as compound remaining after 2 hrs by LC-MS/MS analysis; format: ADME, cell-free; conditions: read-out: Stability
[30] = Metabolic stability in mouse liver microsomes assessed as half life at 10 uM preincubated for 5 mins followed by NADPH addition by LC-MS/MS analysis; format: ADME, Microsome

SMILES: O=C1Cc2ccc(cc2)OCCC/C=C/CCCOc2ccc(cc2)CC(=O)Nc2nnc(s2)CCCCc2nnc(s2)N1
solubility thermodynamic [1]: 0.29 µg/mL (≈ 0.458 µM)
IC50 (MDA-MB-436): 38300 nM
ΔTm [2]: 0.19 °C
IC50 [3]: 4700 nM
IC50 (HCT-116 [4]): 16200 nM
logD ([5]; read-out: logD): 3.62

SMILES: O=C1Cc2ccc(cc2)OCC/C=C/CCOc2ccc(cc2)CC(=O)Nc2nnc(s2)CCCCc2nnc(s2)N1
solubility thermodynamic [1]: 0.33 µg/mL (≈ 0.546 µM)
IC50 (MDA-MB-436): 1900 nM
ΔTm [2]: 13.9 °C
inhibition (HCT-116 [6]): Dose-Dependent Effect
IC50 [3]: 80 nM
IC50 (HCT-116 [4]): 960 nM
logD ([5]; read-out: logD): 3.52

SMILES: O=C1Cc2ccc(cc2)OCCCC/C=C/CCCCOc2ccc(cc2)CC(=O)Nc2nnc(s2)CCCCc2nnc(s2)N1
solubility thermodynamic [1]: 0.25 µg/mL (≈ 0.378 µM)
IC50 (MDA-MB-436): 2510 nM
ΔTm [2]: 12.9 °C
IC50 [3]: 193 nM
IC50 (HCT-116 [4]): 1480 nM
logD ([5]; read-out: logD): 3.91

SMILES: O=C1Cc2cccc(c2)OCCCC/C=C/CCCCOc2cccc(c2)CC(=O)NC2=NN=C(CCCCC3=NN=C(N1)S3)S2
solubility thermodynamic [1]: 0.22 µg/mL (≈ 0.333 µM)
IC50 (MDA-MB-436): 6490 nM
ΔTm [2]: 16.6 °C
IC50 [3]: 225 nM
IC50 (HCT-116 [4]): 7080 nM
logD ([5]; read-out: logD): 3.85

Now those with a lower IC50 (MDA-MB-436), led by results:

solubility thermodynamic [1]: 2.34 µg/mL (≈ 3.58 µM)
IC50 (MDA-MB-436): 840 nM
ΔTm [2]: 15.9 °C
IC50 [3]: 75 nM
IC50 (HCT-116 [4]): 520 nM
logD ([5]; read-out: logD): 2.53
SMILES: O=C1CC/C=C/CCC(=O)Nc2cccc(c2)CC(=O)Nc2nnc(s2)CCCCc2ccc(nn2)NC(=O)Cc2cccc(c2)N1
inhibition (HCT-116 [6]): Dose-Dependent Effect

solubility thermodynamic [1]: 0.36 µg/mL (≈ 0.624 µM)
IC50 (MDA-MB-436): 790 nM
ΔTm [2]: 16.1 °C
IC50 [3]: 76 nM
IC50 (HCT-116 [4]): 420 nM
logD ([5]; read-out: logD): 2.98
SMILES: O=C1Cc2ccc(cc2)OC/C=C/COc2ccc(cc2)CC(=O)Nc2nnc(s2)CCCCc2nnc(s2)N1

solubility thermodynamic [1]: 1.84 µg/mL (≈ 3.35 µM)
IC50 (MDA-MB-436): 510 nM
ΔTm [2]: 16.7 °C
IC50 [3]: 25 nM
IC50 (HCT-116 [4]): 140 nM
logD ([5]; read-out: logD): 4.29
SMILES: O=C1CCc2cccc(c2)OCCCC/C=C/CCCC(=O)Nc2nnc(s2)CCCCc2ccc(nn2)N1
inhibition (HCT-116 [6]): Dose-Dependent Effect

solubility thermodynamic [1]: 0.31 µg/mL (≈ 0.513 µM)
IC50 (MDA-MB-436): 470 nM
ΔTm [2]: 15.9 °C
IC50 [3]: 47 nM
IC50 (HCT-116 [4]): 350 nM
logD ([5]; read-out: logD): 3.16
SMILES: O=C1Cc2cccc(c2)OCC/C=C/CCOc2cccc(c2)CC(=O)NC2=NN=C(CCCCC3=NN=C(N1)S3)S2

Vd [7]: 26.1 L/kg
CL [8]: 135 mL/min/kg
AUC(0-inf) [9]: 18900 ng·h/mL
AUC [10]: 2431 ng·h/mL
Cmax [11]: 1720 ng/mL
Cmax [12]: 3.01 µM
half-life [14]: 3.7 h
IC50 (MDA-MB-436): 430 nM
half-life [15]: 3.2 h
CL/F [16]: 187 mL/min/kg
Vz [17]: 60.9 L/kg
fCmax [18]: 0.31 µM
AUC(0-t) at 72 h [19]: 18900 ng·h/mL
fraction unbound [20]: 0.103
microsomal CLint at 10 µM [21]: 12.3 µL/min/mg
AUC(0-t) at 72 h [22]: 2380 ng·h/mL
microsomal CLint at 10 µM [23]: 9.7 µL/min/mg
half-life at 10 µM [25]: 1.4 h
bioavailability [26]: 19%
IC50 (HCT-116 [4]): 110 nM
logD [5]: 2.24
remaining at 2 h [28]: 84%
remaining at 2 h [29]: 72%
half-life at 10 µM [30]: 1.05 h
SMILES: O=C(Cc1cccc(OC(F)(F)F)c1)Nc1ccc(CCCCc2nnc(NC(=O)Cc3ccccn3)s2)nn1
Activity [13]: Non-Toxic
Activity [24]: Non-Toxic
TGI (HCT-116 [27]): 45%

— ChEMBL document CHEMBL4831477, “Structure-Enabled Discovery of Novel Macrocyclic Inhibitors Targeting Glutaminase 1 Allosteric Binding Site” (J Med Chem, 2021)
